This is an account of results in patent publication US4570006A, “Amidine compound, process for producing same and anti-complement agent comprising same” (Torii & Co. Ltd., priority 1981, dated 1986).

One assay has as its target Plasmin (Homo sapiens, UniProt P00747). The assay is described as follows: Anti-plasmin activity (inhibition of TAME hydrolysis). The conditions noted are these: read-out: ID50, plasmin. Type of assay: biochemical. How it is done: (§1) The anti-trypsin, anti-plasmin, anti-kallikrein and anti-thrombin activities were determined according to the method of Muramatsu et al. [M. Muramatsu, T. Onishi, S. Makino, Y. Hayashi and S. Fujii, J. of Biochem., 58, 214 (1965)]. The data summarized in Table 1 are expressed in terms of molar concentration (ID50) of the test compound which inhibits 50% of the activity of each enzyme to hydrolyze TAME (tosylarginine methyl ester). The compound No. corresponds to the compound number shown in Examples.

In another assay the test system is Kallikrein. As to the kind of experiment: Anti-kallikrein activity (inhibition of TAME hydrolysis). Type of assay: biochemical. To be noted: read-out: ID50, kallikrein. As to the method: as §1
Another assay addresses T1, Cls (Homo sapiens, UniProt P09871).
T1 sequence (P09871 438-688 limits assumed): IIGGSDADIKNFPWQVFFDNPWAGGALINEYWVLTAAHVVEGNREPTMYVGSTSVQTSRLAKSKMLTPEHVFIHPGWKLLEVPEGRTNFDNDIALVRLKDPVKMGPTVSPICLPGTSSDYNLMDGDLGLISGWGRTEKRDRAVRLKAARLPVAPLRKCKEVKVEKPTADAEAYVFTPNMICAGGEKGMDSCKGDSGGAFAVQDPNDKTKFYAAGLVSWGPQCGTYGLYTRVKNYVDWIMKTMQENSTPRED
T1 sequence (P09871 16-437 limits assumed): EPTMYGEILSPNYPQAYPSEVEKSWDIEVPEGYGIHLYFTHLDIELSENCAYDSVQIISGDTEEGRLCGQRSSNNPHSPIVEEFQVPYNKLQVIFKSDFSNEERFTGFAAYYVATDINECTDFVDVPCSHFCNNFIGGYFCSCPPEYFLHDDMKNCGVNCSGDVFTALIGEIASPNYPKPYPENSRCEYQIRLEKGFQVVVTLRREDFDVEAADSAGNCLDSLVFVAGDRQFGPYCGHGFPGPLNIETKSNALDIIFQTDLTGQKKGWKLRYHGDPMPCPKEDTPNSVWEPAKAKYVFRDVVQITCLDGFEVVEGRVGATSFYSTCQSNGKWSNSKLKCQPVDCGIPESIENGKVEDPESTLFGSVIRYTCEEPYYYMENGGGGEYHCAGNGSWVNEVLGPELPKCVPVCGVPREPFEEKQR
The assay is described as follows: Anti-Cl esterase activity, Cls (ATEE hydrolysis). Type of assay: biochemical. To be noted: hydrolysis of ATEE; read-out: Anti-Cl activity, Cls (50% inhibition). As to the method: The anti-Cl esterase (Clr, Cls) activity was determined according to the method of Okamura et al. [K. Okamura, M. Muramatsu and B. Fujii, Biochem. Biophys. […] The figures in Table 2 have the following meanings:
Cls: Molar concentration of the test compound which inhibits 50% of the ability of Cls to hydrolyse ATEE (acetyltyrosin ethyl ester).

In a further assay the test system is complement. The assay is described as follows: Inhibition of complement mediated hemolysis. Type of assay: cell-based.
The target of the next assay is T2, Trypsin (Bos taurus, UniProt P00760).
T2 sequence (P00760 24-246): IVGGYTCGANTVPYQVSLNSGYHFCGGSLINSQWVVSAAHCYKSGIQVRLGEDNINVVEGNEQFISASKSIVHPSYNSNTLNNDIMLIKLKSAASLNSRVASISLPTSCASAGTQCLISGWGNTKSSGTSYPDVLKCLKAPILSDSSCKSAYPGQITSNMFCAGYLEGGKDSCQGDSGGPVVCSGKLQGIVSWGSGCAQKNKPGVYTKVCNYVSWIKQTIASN
The assay is described as follows: Anti-trypsin activity (inhibition of TAME hydrolysis). Type of assay: biochemical. The conditions noted are these: read-out: ID50, trypsin. How it is done: as §1

The target of a further assay is T3, Clr (Homo sapiens, UniProt P00736).
T3 sequence (P00736 464-705 limits assumed): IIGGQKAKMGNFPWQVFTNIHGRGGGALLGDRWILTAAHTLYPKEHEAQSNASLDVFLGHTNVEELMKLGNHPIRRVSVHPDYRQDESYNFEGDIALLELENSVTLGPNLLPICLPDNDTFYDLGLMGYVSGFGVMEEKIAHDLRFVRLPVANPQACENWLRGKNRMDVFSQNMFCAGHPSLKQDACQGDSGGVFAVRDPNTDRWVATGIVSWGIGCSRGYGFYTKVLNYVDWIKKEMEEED
T3 sequence (P00736 18-463 limits assumed): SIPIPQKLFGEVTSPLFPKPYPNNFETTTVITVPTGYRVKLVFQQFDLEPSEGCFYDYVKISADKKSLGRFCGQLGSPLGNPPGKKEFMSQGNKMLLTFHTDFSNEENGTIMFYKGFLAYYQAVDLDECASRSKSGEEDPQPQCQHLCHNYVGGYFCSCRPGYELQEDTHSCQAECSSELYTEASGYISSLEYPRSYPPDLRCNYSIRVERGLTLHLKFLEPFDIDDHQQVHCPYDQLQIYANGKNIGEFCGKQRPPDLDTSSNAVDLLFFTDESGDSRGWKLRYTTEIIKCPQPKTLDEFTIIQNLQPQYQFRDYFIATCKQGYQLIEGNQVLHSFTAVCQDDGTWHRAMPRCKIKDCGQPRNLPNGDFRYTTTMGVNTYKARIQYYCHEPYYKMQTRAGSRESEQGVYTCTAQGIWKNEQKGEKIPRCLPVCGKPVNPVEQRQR
The assay is described as follows: Anti-Cl esterase activity, Clr (AAME hydrolysis). Type of assay: biochemical. The conditions noted are these: hydrolysis of AAME; read-out: Anti-Cl activity, Clr (ID50). How it is done: The anti-Cl esterase ([…]) activity was determined according to the method of Okamura et al. [K. Okamura, M. Muramatsu and B. Fujii, Biochem. Biophys.

For the next assay, the target named is Thrombin (Homo sapiens, UniProt P00734). The assay is described as follows: biochemical. The conditions noted are these: TAME hydrolysis; read-out: ID50, thrombin.

Sequence of Plasmin (P00747 581-810 limits assumed, species assumed): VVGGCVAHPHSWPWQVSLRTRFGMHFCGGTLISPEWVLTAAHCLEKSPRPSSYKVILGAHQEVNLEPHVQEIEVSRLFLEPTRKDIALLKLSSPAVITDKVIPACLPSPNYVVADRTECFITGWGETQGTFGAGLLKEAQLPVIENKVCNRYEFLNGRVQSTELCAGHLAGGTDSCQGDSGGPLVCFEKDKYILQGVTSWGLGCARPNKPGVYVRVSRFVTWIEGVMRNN
Sequence of Plasmin (P00747 97-580 limits assumed, species assumed): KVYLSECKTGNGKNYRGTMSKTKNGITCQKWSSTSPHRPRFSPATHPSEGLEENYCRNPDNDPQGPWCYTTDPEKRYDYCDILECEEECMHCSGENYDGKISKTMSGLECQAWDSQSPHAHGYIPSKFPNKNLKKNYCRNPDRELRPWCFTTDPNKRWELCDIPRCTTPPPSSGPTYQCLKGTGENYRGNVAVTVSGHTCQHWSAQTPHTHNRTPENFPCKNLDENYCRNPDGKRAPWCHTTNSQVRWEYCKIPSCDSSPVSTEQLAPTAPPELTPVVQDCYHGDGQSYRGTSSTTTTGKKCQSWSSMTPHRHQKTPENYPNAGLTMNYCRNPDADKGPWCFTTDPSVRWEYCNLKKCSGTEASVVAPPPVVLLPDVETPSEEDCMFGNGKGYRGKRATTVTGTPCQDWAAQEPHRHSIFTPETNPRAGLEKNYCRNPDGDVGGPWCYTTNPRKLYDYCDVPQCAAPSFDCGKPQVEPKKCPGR

As to `CC=CC=CC(=O)Oc1ccc(C(=N)N)cc1C(=O)OC` [Compound 5], the IC50 on Plasmin was 0.3 µM; in the assay with Kallikrein, 1 µM; on Cls, 0.9 µM; on Trypsin, 0.7 µM; on Clr, 5 µM; on Thrombin, 2 µM. In addition, the “Inhibition of complement mediated hemolysis (%)” value (shortened to “Inhibition … (%)”) in the assay with complement (compound at 1 × 10^-4) is reported as 100%; in the assay on complement (compound at 1 × 10^-5) it was 97.0%; with complement (compound at 1 × 10^-6) it was 47.2%; with complement (compound at 1 × 10^-7), 3.0%.

For `CC=CC=CC(=O)Oc1ccc(C(=N)N)cc1C(=O)c1ccccc1` [Compound 6], the IC50 was 0.4 µM at Plasmin; 0.3 µM in the assay with Kallikrein; 0.3 µM at Cls; 0.2 µM on Trypsin; 1 µM at Clr; 0.08 µM on Thrombin. Also, the “Inhibition … (%)” value is listed as 100% in the assay with complement (compound at 1 × 10^-4), 97.7% in the assay with complement (compound at 1 × 10^-5), 52.9% in the assay with complement (compound at 1 × 10^-6) and 5.0% in the assay with complement (compound at 1 × 10^-7).

As for `N=C(N)c1ccc(OC(=O)CCCCCNC(=O)OCc2ccccc2)c(C(=O)c2ccccc2)c1` [Compound 12, 4-amidino-2-benzoylphenyl 6-benzyloxycarbonylaminocaproate], the IC50 is more than 10 µM on Plasmin; more than 10 µM with Kallikrein; 5 µM at Cls; 6 µM on Trypsin; more than 10 µM at Clr; 4 µM at Thrombin. Besides, the “Inhibition … (%)” value in the assay with complement (compound at 1 × 10^-4) is on record as 91.3%; with complement (compound at 1 × 10^-5), 57.8%; in the assay with complement (compound at 1 × 10^-6), 15.0%; in the assay on complement (compound at 1 × 10^-7), 3.8%.

In the case of `N=C(N)c1ccc(OC(=O)CCCCCN)c(C(=O)c2ccccc2)c1` [Compound 13, 4-amidino-2-benzoylphenyl 6-aminocaproate], the IC50 at Plasmin, in the assay on Kallikrein, on Cls, at Trypsin, on Clr and on Thrombin was more than 10 µM in each case. The “Inhibition … (%)” value in the assay on complement (compound at 1 × 10^-4) is recorded as 15.9%; in the assay on complement (compound at 1 × 10^-5), 9.8%; with complement (compound at 1 × 10^-6) it was 0%; with complement (compound at 1 × 10^-7), 0%.

With `COc1cc(C(=N)N)ccc1OC(=O)CCCCCNC(=N)N` [Compound 14, 4-amidino-2-methoxyphenyl 6-guanidinocaproate], the IC50 on Plasmin was 10 µM; in the assay with Kallikrein, 10 µM; at Cls it was more than 10 µM; at Trypsin, 10 µM; at Clr it was more than 10 µM; on Thrombin it was 10 µM. Moreover, the “Inhibition … (%)” value stood at 63.6% in the assay with complement (compound at 1 × 10^-4), 16.2% with complement (compound at 1 × 10^-5), 7.0% with complement (compound at 1 × 10^-6) and 0% with complement (compound at 1 × 10^-7).

For the compound `COc1cc(C(=N)N)ccc1OC(=O)[C@H]1CC[C@H](CNC(=O)OCc2ccccc2)CC1` [Compound 16], the IC50 at Plasmin is 0.3 µM; with Kallikrein, 5 µM; at Cls, 0.8 µM; on Trypsin, 10 µM; at Clr, more than 10 µM; at Thrombin, 1 µM. The “Inhibition … (%)” value turned out to be 91.2% in the assay on complement (compound at 1 × 10^-4), 61.8% in the assay on complement (compound at 1 × 10^-5), 17.4% in the assay with complement (compound at 1 × 10^-6) and 3.4% with complement (compound at 1 × 10^-7).

Consider `COc1cc(C(=N)N)ccc1OC(=O)[C@H]1CC[C@H](CN)CC1` [Compound 17], for which the IC50 at Plasmin, with Kallikrein, at Cls, on Trypsin, on Clr and at Thrombin was more than 10 µM each time. The “Inhibition … (%)” value is recorded as 98.6% with complement (compound at 1 × 10^-4), 78.2% in the assay on complement (compound at 1 × 10^-5), 20.4% with complement (compound at 1 × 10^-6) and 0% in the assay with complement (compound at 1 × 10^-7).

Consider `COC(=O)c1cc(C(=N)N)ccc1OC(=O)[C@H]1CC[C@H](CNC(=O)OCc2ccccc2)CC1` [Compound 18, 4-amidino-2-methoxycarbonylphenyl trans-4-benzyloxycarbonylaminomethylcyclohexanecarboxylate], for which the IC50 on Plasmin is 0.5 µM; with Kallikrein, 1 µM; at Cls, 2 µM; on Trypsin it was 3 µM; at Clr it was more than 10 µM; at Thrombin it was 4 µM. Further, the “Inhibition … (%)” value in the assay with complement (compound at 1 × 10^-4) is given as 98.8%; in the assay on complement (compound at 1 × 10^-5) it was 73.2%; in the assay with complement (compound at 1 × 10^-6), 11.4%; in the assay with complement (compound at 1 × 10^-7), 2.2%.

In the case of `COC(=O)c1cc(C(=N)N)ccc1OC(=O)[C@H]1CC[C@H](CN)CC1` [Compound 19, 4-amidino-2-methyoxycarbonylphenyl trans-4-aminomethylcyclohexanecarboxylate], the IC50 at Plasmin, with Kallikrein, on Cls, on Trypsin, on Clr and at Thrombin was more than 10 µM each time. Moreover, the “Inhibition … (%)” value was determined as 99.2% with complement (compound at 1 × 10^-4), 83.4% in the assay with complement (compound at 1 × 10^-5), 15.0% in the assay on complement (compound at 1 × 10^-6) and 5.0% with complement (compound at 1 × 10^-7).

As to `N=C(N)c1ccc(OC(=O)[C@H]2CC[C@H](CNC(=O)OCc3ccccc3)CC2)c(C(=O)c2ccccc2)c1` [Compound 20], the IC50 was 0.6 µM at Plasmin; 0.6 µM in the assay with Kallikrein; 0.3 µM at Cls; 1 µM on Trypsin; more than 10 µM on Clr; 0.5 µM on Thrombin. The “Inhibition … (%)” value in the assay on complement (compound at 1 × 10^-4) is given as 96.8%; with complement (compound at 1 × 10^-5) it was 80.3%; with complement (compound at 1 × 10^-6), 13.0%; in the assay with complement (compound at 1 × 10^-7), 1.8%.
